Laboratory results as given in US10821100B2, “Triazolone compounds as mPGES-1 inhibitors” (Glenmark Pharmaceuticals S.A., priority 2012, dated 2020).
pIC50: −log10 of the molar value.

Molecular target: T1, Recombinant human mPGES-1 (Homo sapiens, UniProt O14684)
T1 construct: made in house; host or cells: CHO cells (crude microsomal fractions)
T1 sequence (O14684 1-152): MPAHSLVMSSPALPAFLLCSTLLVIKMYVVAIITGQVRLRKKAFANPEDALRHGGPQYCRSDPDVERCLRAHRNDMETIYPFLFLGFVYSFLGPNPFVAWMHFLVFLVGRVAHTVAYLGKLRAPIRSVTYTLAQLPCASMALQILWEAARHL
Test: In-vitro screening of mPGES-1 inhibitors (inhibition of PGE2 formation from PGH2, HTRF detection)
Type: biochemical
Conditions: mPGES-1 enzyme; for inhibition at 1 µM: 1 μM test compound, read-out: Percentage inhibition at 1 μM; for inhibition at 1 µM / inhibition at 10 µM: crude microsomal fractions; for inhibition at 10 µM: 10 μM test compound, read-out: Percentage inhibition at 10 μM; for pIC50: class symbols
Method in brief: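 PGH2-to-PGE2 isomerization run for 1 min with 15 μM PGH2 after 10 min compound preincubation with microsomal enzyme (40–60 μg/mL) and 2.5 mM GSH, pH buffer 0.1 M potassium phosphate with EDTA. Stannous chloride quench, HTRF PGE2 readout, IC50 fitted against uninhibited reaction.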

inhibition at 1 µM | inhibition at 10 µM | pIC50 | SMILES
79.9% | 95% | – | CC1(C)CCC(n2nc(-c3cc(CNC(=O)C(C)(C)C)c(F)cc3Cl)[nH]c2=O)CC1 [Example-125, N-(4-Chloro-2-fluoro-5-(4,5-dihydro-1-(4,4-dimethylcyclohexyl)-5-oxo-1H-1,2,4-triazol-3-yl)benzyl)pivalamide]
100% | 99.3% | > 7.30 | CC(C)(C)C(=O)NCc1cc(-c2nn(-c3ccc(Cl)cc3)c(=O)[nH]2)c(Cl)cc1F [Example-126, N-(4-Chloro-5-(1-(4-chlorophenyl)-4,5-dihydro-5-oxo-1H-1,2,4-triazol-3-yl)-2-fluorobenzyl)pivalamide]
32.4% | 58.5% | – | COc1cc(Cl)c(-c2nn(-c3ccc(C(F)(F)F)cc3)c(=O)[nH]2)cc1CNC(=O)C(C)(C)C [Example-127, N-(4-Chloro-5-(1-(4-(trifluoromethyl)phenyl)-4,5-dihydro-5-oxo-1H-1,2,4-triazol-3-yl)-2-methoxybenzyl)pivalamide]
91.8% | 89.3% | > 7.30 | CC(C)(C)C(=O)NCc1cc(-c2nn(-c3ccc(F)c(C(F)(F)F)c3)c(=O)[nH]2)c(Cl)cc1F [Example-128, N-(4-Chloro-2-fluoro-5-(1-(4-fluoro-3-(trifluoromethyl)phenyl)-4,5-dihydro-5-oxo-1H-1,2,4-triazol-3-yl)benzyl)pivalamide]
93.5% | 92.1% | > 7.30 | CC(C)(C)C(=O)NCc1cc(-c2nn(-c3ccc(C(F)(F)F)nc3)c(=O)[nH]2)c(Cl)cc1F [Example-129, N-(4-Chloro-2-fluoro-5-(1-(6-(trifluoromethyl)pyridin-3-yl)-4,5-dihydro-5-oxo-1H-1,2,4-triazol-3-yl)benzyl)pivalamide]
96.6% | 97.8% | 7.00 to 7.30 | CC(C)(C)C(=O)NCc1cc(-n2nc(-c3ccc(C#CC4CC4)cc3)[nH]c2=O)c(Cl)cc1Cl [Example-130, N-(2,4-Dichloro-5-(3-(4-(2-cyclopropylethynyl)phenyl)-4,5-dihydro-5-oxo-1,2,4-triazol-1-yl)benzyl)pivalamide]
100% | 99.2% | > 7.30 | CC(C)(C)C(=O)NCc1cc(-c2nn(-c3ccc(F)c(Cl)c3)c(=O)[nH]2)c(Cl)cc1F [Example-131, N-(4-Chloro-5-(1-(3-chloro-4-fluorophenyl)-4,5-dihydro-5-oxo-1H-1,2,4-triazol-3-yl)-2-fluorobenzyl)pivalamide]
91.8% | 89.8% | > 7.30 | O=C(NCc1cc(-c2nn(-c3ccc(Cl)cc3)c(=O)[nH]2)c(Cl)cc1F)c1ccccc1F [Example-132, N-(4-Chloro-5-(1-(4-chlorophenyl)-4,5-dihydro-5-oxo-1H-1,2,4-triazol-3-yl)-2-fluorobenzyl)-2-fluorobenzamide]
98% | 97.9% | > 7.30 | CC(C)C(=O)NCc1cc(-c2nn(-c3ccc(C(F)(F)F)cc3)c(=O)[nH]2)c(Cl)cc1F [Example-133, N-(4-Chloro-2-fluoro-5-(1-(4-(trifluoromethyl)phenyl)-4,5-dihydro-5-oxo-1H-1,2,4-triazol-3-yl)benzyl)isobutyramide]
91.5% | 93.9% | > 7.30 | CC(C)(CF)C(=O)NCc1cc(-c2nn(-c3ccc(Cl)cc3)c(=O)[nH]2)c(Cl)cc1F [Example-134, N-(4-Chloro-5-(1-(4-chlorophenyl)-4,5-dihydro-5-oxo-1H-1,2,4-triazol-3-yl)-2-fluorobenzyl)-3-fluoro-2,2-dimethylpropanamide]
92.3% | 98.9% | > 7.30 | Cc1ccc(-n2nc(-c3cc(CNC(=O)C(C)(C)C)c(F)cc3Cl)[nH]c2=O)cc1Cl [Example-135, N-(4-Chloro-5-(1-(3-chloro-4-methylphenyl)-4,5-dihydro-5-oxo-1H-1,2,4-triazol-3-yl)-2-fluorobenzyl)pivalamide]
95.1% | 94.8% | > 7.30 | CC(C)(C)C(=O)NCc1cc(-n2nc(-c3ccc(C#CC4CC4)cc3)[nH]c2=O)c(Cl)cc1F [Example-136, N-(4-Chloro-5-(3-(4-(2-cyclopropylethynyl)phenyl)-4,5-dihydro-5-oxo-1,2,4-triazol-1-yl)-2-fluorobenzyl)pivalamide]
93.4% | 93.1% | > 7.30 | CC(C)(C)C#Cc1ccc(-c2nn(-c3cc(CNC(=O)C(C)(C)C)c(F)cc3Cl)c(=O)[nH]2)cc1 [Example-137, N-(4-Chloro-2-fluoro-5-(4,5-dihydro-3-(4-(3,3-dimethylbut-1-ynyl)phenyl)-5-oxo-1,2,4-triazol-1-yl)benzyl)pivalamide]
93.3% | 92.9% | > 7.30 | CC(C)(C)C(=O)NCc1ccc(Cl)c(-c2nn(-c3ccc(C(F)(F)F)nc3)c(=O)[nH]2)c1 [Example-138, N-(4-Chloro-3-(1-(6-(trifluoromethyl)pyridin-3-yl)-4,5-dihydro-5-oxo-1H-1,2,4-triazol-3-yl)benzyl)pivalamide]
93.9% | 99.1% | > 7.30 | CC(C)(C)C(=O)NCc1ccc(Cl)c(-c2nn(-c3ccc(F)c(Cl)c3)c(=O)[nH]2)c1 [Example-139, N-(4-Chloro-3-(1-(3-chloro-4-fluorophenyl)-4,5-dihydro-5-oxo-1H-1,2,4-triazol-3-yl)benzyl)pivalamide]
97.4% | 98.1% | > 7.30 | Cc1ccc(-n2nc(-c3cc(CNC(=O)C(C)(C)C)ccc3Cl)[nH]c2=O)cc1Cl [Example-140, N-(4-Chloro-3-(1-(3-chloro-4-methylphenyl)-4,5-dihydro-5-oxo-1H-1,2,4-triazol-3-yl)benzyl)pivalamide]
97.6% | 97.5% | > 7.30 | CC(C)(C)C(=O)NCc1ccc(Cl)c(-n2nc(-c3ccc(C#CC4CC4)cc3)[nH]c2=O)c1 [Example-141, N-(4-Chloro-3-(3-(4-(2-cyclopropylethynyl)phenyl)-4,5-dihydro-5-oxo-1,2,4-triazol-1-yl)benzyl)pivalamide]
97.2% | 94% | > 7.30 | CC(C)(C)C(=O)NCc1ccc(Cl)c(-c2nn(-c3cccc(C(F)(F)F)c3)c(=O)[nH]2)c1 [Example-142, N-(4-Chloro-3-(1-(3-(trifluoromethyl)phenyl)-4,5-dihydro-5-oxo-1H-1,2,4-triazol-3-yl)benzyl)pivalamide]
99.2% | 90.7% | > 7.30 | CC(C)C(=O)NCc1ccc(Cl)c(-n2nc(-c3ccc(C#CC(C)(C)C)cc3)[nH]c2=O)c1 [Example-143, N-(4-Chloro-3-(4,5-dihydro-3-(4-(3,3-dimethylbut-1-ynyl)phenyl)-5-oxo-1,2,4-triazol-1-yl)benzyl)isobutyramide]
97.5% | 92.7% | > 7.30 | CC(C)C(=O)NCc1ccc(Cl)c(-c2nn(-c3ccc(C(F)(F)F)cc3)c(=O)[nH]2)c1 [Example-144, N-(4-Chloro-3-(1-(4-(trifluoromethyl)phenyl)-4,5-dihydro-5-oxo-1H-1,2,4-triazol-3-yl)benzyl)isobutyramide]
